These results are taken from BindingDB's records for doi:10.1016/s0028-3908(97)00161-5 (University of Bristol, 1997).

The assay deals with Glutamate receptor (Oryctolagus cuniculus, UniProt G1SXH9).
Glutamate receptor, sequence (G1SXH9 whole entry): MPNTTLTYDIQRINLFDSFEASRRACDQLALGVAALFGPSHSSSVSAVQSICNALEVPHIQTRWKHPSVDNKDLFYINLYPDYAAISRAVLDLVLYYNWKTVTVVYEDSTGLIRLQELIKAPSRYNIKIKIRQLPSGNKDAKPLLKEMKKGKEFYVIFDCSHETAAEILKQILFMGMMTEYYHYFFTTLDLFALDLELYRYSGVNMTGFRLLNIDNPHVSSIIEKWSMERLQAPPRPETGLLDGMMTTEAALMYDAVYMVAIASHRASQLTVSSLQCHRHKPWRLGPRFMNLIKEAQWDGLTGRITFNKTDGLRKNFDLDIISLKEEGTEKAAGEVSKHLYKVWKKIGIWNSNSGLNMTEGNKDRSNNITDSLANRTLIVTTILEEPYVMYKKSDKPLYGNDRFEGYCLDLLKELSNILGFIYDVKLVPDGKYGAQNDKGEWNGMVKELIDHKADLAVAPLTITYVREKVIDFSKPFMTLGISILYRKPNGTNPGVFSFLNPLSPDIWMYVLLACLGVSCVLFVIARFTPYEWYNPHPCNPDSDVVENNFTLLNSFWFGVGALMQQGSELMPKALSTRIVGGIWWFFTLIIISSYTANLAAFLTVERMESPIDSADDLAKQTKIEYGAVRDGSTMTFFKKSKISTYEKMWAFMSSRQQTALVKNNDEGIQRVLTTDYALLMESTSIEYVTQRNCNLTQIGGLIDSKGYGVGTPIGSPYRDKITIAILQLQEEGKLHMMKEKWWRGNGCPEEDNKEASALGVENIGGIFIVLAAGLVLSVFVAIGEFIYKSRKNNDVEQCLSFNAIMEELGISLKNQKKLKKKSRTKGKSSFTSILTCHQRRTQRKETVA
A word on the Ki: it is a dissociation constant, usually derived from enzyme kinetics or from competition with a known ligand. The low end stands for higher affinity, the high end for lower affinity. The compound `N#Cc1cc2nc(O)c(O)nc2cc1[N+](=O)[O-]` [7-Cyano-3-hydroxy-6-nitro-quinoxalin-2-ol anion] yielded a Ki of 2150 nM. This lies in the single-digit micromolar range. Then `N[C@@H](Cn1cc(F)c(=O)[nH]c1=O)C(=O)O` [(S)-5-Fluorowillardiine], with above 10000 nM; and `N[C@@H](Cn1oc(=O)[nH]c1=O)C(=O)O` [2-amino-3-(3,5-dioxo[1,2,4]oxadiazolidin-2-yl)propionic acid], with 16.5 nM.

In turn, `C/C(=C\C=C\[C@@H](C)C(=O)O)[C@H]1CN[C@H](C(=O)O)[C@H]1CC(=O)O` yielded a Ki of 0.71 nM. Consider `CN[C@H](CC(=O)O)C(=O)O` [NMDA], for which the Ki was above 10000 nM.
